According to the CATMoS acute toxicity set (Mansouri et al. 2021):
Where a SMILES comes first, the peptide text is derived from it. [ ]: non-standard residue; d: D form. The star is where a group is joined. Sta = CC(C)C[C@H](N)[C@@H](O)CC(=O)O; pGlu = O=C1CC[C@@H](C(=O)O)N1; Isovaleryl = CC(C)CC(=O)*; Thz = O=C(O)[C@@H]1CSCN1

Experiment: GHS categories as the set defines them, by LD50: 1 up to 5, 2 up to 50, 3 up to 300, 4 up to 2000, 5 above 2000 mg/kg
Conditions: rat; in vivo; po

## COc1c(C)c(O)c(C)c(C)c1C(=O)Oc1c(C)c(C)c(C(=O)Oc2c(C)c(C)c(C(=O)O)c(OC)c2C)c(O)c1C
  GHS category: 4

## CCC(=O)OC(C)(C)C1CC=C(C)CC1 (configuration not stated)
  GHS category: 5

## COC(=O)c1ccc(CNS(C)(=O)=O)cc1S(=O)(=O)NC(=O)Nc1nc(OC)cc(OC)n1
  GHS category: 5

## CNC(=O)C(=NNc1ccccc1Cl)C(C)=O
  GHS category: 5

## Cc1cccc(C)c1NC(=O)CN1CCN(CCCC(c2ccc(F)cc2)c2ccc(F)cc2)CC1
  GHS category: 5

## O=C(NC(CCc1ccc2c(c1)OCO2)CCc1ccc2c(c1)OCO2)c1cc2ccccc2o1
  GHS category: 5

## CCC(O)OCc1c(Cl)ccc(Cl)c1Cl (configuration not stated)
  GHS category: 5

## CCCCCCCCCCCCCCCCNP1(=S)OCc2cc([N+](=O)[O-])ccc2O1 (configuration not stated)
  GHS category: 3

## COc1ccc(OCCCCN2CCN(CCc3cc(OC)c(OC)c(OC)c3)CC2)c(C2Sc3ccccc3N2C(C)=O)c1 (configuration not stated)
  GHS category: 4

## Cc1nc2ccccc2c(=O)n1-c1ccccc1C#N
  GHS category: 4

## CCCCCCCC(=O)O[C@H]1CO[C@H]2[C@@H]1OC[C@H]2OC(=O)CCCCCCC
  GHS category: 5

## Cc1cnc2c(C(=O)O)c(Cl)ccc2c1
  GHS category: 5

## CCCCC(C)OP(=S)(OCC)OCC (configuration not stated)
  GHS category: 4

## CCOC(=O)C(=O)Nc1cc(OCCOC)ncn1
  GHS category: 4

## CCCCCCC(O)CCCCCCCCCCC(=O)OCC(COC(=O)CCCCCCCCCCC(O)CCCCCC)OC(=O)CCCCCCCCCCC(O)CCCCCC (configuration not stated)
  GHS category: 5

## CCCOC(=O)Cc1ccc(OCC(=O)N(CC)CC)c(OC)c1
  GHS category: 5

## C#CCOc1cc(-n2nc3n(c2=O)CCCC3)c(Cl)cc1Cl
  GHS category: 5

## O=S(=O)(O)c1cc(O)ccc1O
  GHS category: 5

## COC(=O)C(F)(F)C(F)(F)C(F)(F)OC(F)=C(F)F
  GHS category: 3

## OC(c1ccccc1)c1ccc(-c2ccccc2)cc1 (configuration not stated)
  GHS category: 5

## O=[N+]([O-])c1ccc2c(c1)COP(=S)(N1CCCC1)O2 (configuration not stated)
  GHS category: 3

## COC(=O)c1ccccc1S(=O)(=O)NC(=O)Nc1nc(OC(F)F)cc(OC(F)F)n1
  GHS category: 5

## CCC(C)(O)CCCC(C)C (configuration not stated)
  GHS category: 5

## Nc1ncc(Br)cc1O
  GHS category: 5

## COc1ccc2c(c1)CCN(c1ccccc1)C2c1ccc(O)cc1 (configuration not stated)
  GHS category: 4

## CC(C)OC(=O)[C@@H](C)N(C(=O)c1ccccc1)c1ccc(F)c(Cl)c1
  GHS category: 5

## CC1=C(C/C=C(\C)CCC[C@H](C)CCC[C@H](C)CCCC(C)C)C(=O)c2ccccc2C1=O
  GHS category: 5

## Clc1ccc(CNC2=NCCS2)cc1
  GHS category: 3

## Brc1c(Br)c(Br)c(CCc2c(Br)c(Br)c(Br)c(Br)c2Br)c(Br)c1Br
  GHS category: 5

## Clc1cc(Cl)c2oc(C3(Cn4cncn4)OCCCO3)cc2c1
  GHS category: 4

## CCCCOC(=O)Nc1nc(N2CC=CCC2)cc2nc(=O)on12
  GHS category: 5

## CCC(C)(CC)c1ccc(NC(=O)c2c(OC)cccc2OC)nn1
  GHS category: 4

## C=CCSc1nc(N)c2c(C)coc2n1
  GHS category: 5

## CC=CC(=O)OCCCCCC
  GHS category: 5

## CC(=CCc1c(O)c(Cl)c(C)c(C=O)c1O)CCC=C(C)[C@@H]1CC(=O)C(C)(C)O1
  GHS category: 5

## CCCCCCCCCCCCCCCCCCCCCC(=O)Nc1ccn([C@@H]2O[C@H](CO)[C@@H](O)[C@@H]2O)c(=O)n1
  GHS category: 4

## CCCCCCCCCCCCCC(=O)Nc1ccc(Cc2ccccn2)c([N+](=O)[O-])c1
  GHS category: 3

## CC(C)CC1(C)OCC(CO)O1 (configuration not stated)
  GHS category: 5

## CC(C)(CO)CO
  GHS category: 5

## C=COC(=O)CCCCC(C)(C)C
  GHS category: 5

## C/C=C(\C)C(=O)OCC/C=C\CC
  GHS category: 5

## CCN(CC)C(=O)CCCn1nnnc1C
  GHS category: 4

## CN[C@@H]1[C@H](O[C@H]2[C@H](O[C@@H]3[C@H](O)[C@@H](O)[C@@H](OC(N)=O)[C@@H](O)[C@@H]3NC(=N)N)O[C@@H](C)[C@]2(O)CO)O[C@@H](CO)[C@H](O)[C@H]1O
  GHS category: 5

## O=C1CC[C@@H](C(=O)N2CSC[C@H]2C(=O)O)N1 ([pGlu]-[Thz]-OH)
  GHS category: 5

## Cc1cccc(NC(=O)c2cc(C)[nH]n2)c1
  GHS category: 5

## Cc1ccc(C2CC(=O)C(C(=O)CCc3ccc4c(c3)OCO4)C(=O)C2)cc1 (configuration not stated)
  GHS category: 5

## CCOC(=O)c1cnn(-c2cccc(C)c2)c1S(C)(=O)=O
  GHS category: 4

## C1C2CC3CC1CC(C2)C3
  GHS category: 5

## CCOc1c(OC)cccc1-c1nc(=O)c2cc(C(=O)O)ccc2[nH]1
  GHS category: 4

## O=C1c2ccc(N(c3ccc(Cl)cc3)c3ccc(Cl)cc3)cc2C(=O)N1Cc1cccnc1
  GHS category: 5

## O=S(=O)(O)c1ccc(/N=N/c2cc(S(=O)(=O)O)c3ccccc3c2O)c2ccccc12
  GHS category: 5

## CCCCCCCCOC=O
  GHS category: 5

## O=C(NC(=O)C(Cl)(Cl)Cl)NS(=O)(=O)c1ccccc1
  GHS category: 5

## CCCCCCCC1CCCO1 (configuration not stated)
  GHS category: 5

## CC1(C)O[C@@H]2C[C@H]3[C@@H]4C[C@H](F)C5=CC(=O)C=C[C@]5(C)[C@H]4[C@@H](O)C[C@]3(C)[C@]2(C(=O)CO)O1
  GHS category: 1

## CC(C)CC(C)(C)C
  GHS category: 5

## CN(Cc1ccc(C(C)(C)C)cc1)Cc1cccc2ccccc12
  GHS category: 5

## CC(C)(c1ccc(OP(=O)(Oc2ccccc2)Oc2ccccc2)cc1)c1ccc(OP(=O)(Oc2ccccc2)Oc2ccccc2)cc1
  GHS category: 5

## CCCCCCCOCC(C)CC=O (configuration not stated)
  GHS category: 5

## N[C@@H](Cc1c[nH]c2ccccc12)C(=O)O
  GHS category: 5

## CCCCCCCCCCCCCCCCCOS(=O)(=O)O
  GHS category: 4

## CC(C)CC(=O)N[C@H](C(=O)N[C@H](C(=O)N[C@@H](CC(C)C)[C@@H](O)CC(=O)N[C@@H](C)C(=O)N[C@@H](CC(C)C)[C@@H](O)CC(=O)O)C(C)C)C(C)C (Isovaleryl-VV[Sta]A[Sta]-OH)
  GHS category: 5

## O=C(O)C(O)C(O)C(O)C(O)C(O)CO (configuration not stated)
  GHS category: 5

## CC(C)C(=O)OCCOc1ccccc1
  GHS category: 5

## CCCCOC(=O)C(C)O (configuration not stated)
  GHS category: 5

## Cn1ccnc1Cc1nn[nH]n1
  GHS category: 5

## O=C(CCc1ccc2c(c1)OCO2)C1C(=O)CC(c2ccccc2)CC1=O (configuration not stated)
  GHS category: 5

## COC1(C)CCCCCCCCCCC1
  GHS category: 5

## O=C(O)c1cc(Br)nn1-c1ncccc1Cl
  GHS category: 5

## COC(Cn1cncn1)(OC)c1cc2ccccc2o1
  GHS category: 4

## CN1C(=O)COc2cc(C(=O)c3ccc(Cl)cc3)ccc21
  GHS category: 5

## COc1ccccc1C=NNC(N)=S
  GHS category: 5

## O=C1c2ccccc2C(=O)C1c1ccc2ccccc2n1
  GHS category: 5

## CN1c2c(oc(=NC3CCCCC3)n(C3CCCCC3)c2=O)-c2sc(Cl)cc2S1(=O)=O
  GHS category: 2

## O=P(O)(O)CN(CP(=O)(O)O)CP(=O)(O)O
  GHS category: 5

## CC(O)CSCCCCCCCCC(C)(C)C (configuration not stated)
  GHS category: 5

## COc1ccc2c(c1)CCN(c1cccc(F)c1)C2c1cccc(F)c1 (configuration not stated)
  GHS category: 4

## CC(C)OP(O)(=S)OC(C)C
  GHS category: 4

## CCCS(=O)(=O)Nc1ccc(F)c(C(=O)c2cn(C(=O)c3c(Cl)cccc3Cl)c3ncc(-c4ccc(Cl)cc4)cc23)c1F
  GHS category: 5

## O=C1c2ccccc2CN2C(=O)c3ccccc3CN12
  GHS category: 5

## COC(OC)C(C)Cc1ccc(C(C)C)cc1 (configuration not stated)
  GHS category: 5

## COc1ccc2c(c1)CCN(c1ccccc1)C2c1ccccc1N (configuration not stated)
  GHS category: 4

## COc1ccc(C(=O)C2CC2)cc1
  GHS category: 4

## O=C1Cc2ccccc2O1
  GHS category: 5

## CCS(=O)(=O)c1nc2ccccn2c1S(=O)(=O)NC(=O)Nc1nc(OC)cc(OC)n1
  GHS category: 5

## C=C(C)C(=O)OCCOCCOCCCC
  GHS category: 5

## CCCc1c(Cc2ccc(-c3ccccc3-c3nn[nH]n3)cc2)c(N(CC)CC)nc2ncnn12
  GHS category: 4

## CCCCCCCCCCCCSN(C)C(=O)Oc1cccc2c1OC(C)(C)C2
  GHS category: 3

## Nc1nc(=O)c(Br)c(-c2ccccc2)[nH]1
  GHS category: 5

## CC(C)C1C=C2CCC3C(C)(CO)CCCC3(C)C2CC1 (configuration not stated)
  GHS category: 5

## COc1cc2nc(N3CCN(C(=O)CC(C)O)CC3)nc(N)c2cc1OC (configuration not stated)
  GHS category: 5

## CNC(=O)c1sc(-c2ccccc2OC)nc1C
  GHS category: 5

## O=S(=O)(O)OC1C(OS(=O)(=O)O)C(OS(=O)(=O)O)C(OS(=O)(=O)O)C(OS(=O)(=O)O)C1OS(=O)(=O)O (configuration not stated)
  GHS category: 5

## CCN(CC)CCC#N
  GHS category: 4

## CC(C)(C)C(=O)OCC(=O)c1ccccc1
  GHS category: 5

## C=CCCCCCCCCOC(C)=O
  GHS category: 5

## O=C(O)Cc1nc(-c2ccc(F)cc2)oc1-c1ccsc1
  GHS category: 5

## CN(CC1(C)CCCO1)S(=O)(=O)c1ccc(Cl)c(S(N)(=O)=O)c1 (configuration not stated)
  GHS category: 5

## O=C(O)C1CNC1
  GHS category: 5

## Nc1cc(Cl)c(Cl)cc1Cl
  GHS category: 5

## Cc1cc2cccnc2n(-c2cccc(C(F)(F)F)c2)c1=O
  GHS category: 3

## NS(=O)(=O)c1cc(C(=O)NN2C[C@H]3[C@H]4CCC(C4)[C@H]3C2)ccc1Cl
  GHS category: 5

## CCN(CC)C(C)C(=O)c1ccccc1 (configuration not stated)
  GHS category: 4

## CC(O)C(C)O (configuration not stated)
  GHS category: 5

## CCCCCC(=Cc1ccccc1)C(OC)OC
  GHS category: 5

## C[C@]12C=CC(=O)C=C1CC[C@@H]1[C@@H]2CC[C@@]2(C)[C@H]1CC[C@]2(C)O
  GHS category: 4

## COP(=S)(OC)N(C)C(=O)Oc1cccc2c1OC(C)(C)C2
  GHS category: 3

## CC(C)[N+](C)(CCC(C(N)=O)(c1ccccc1)c1ccccc1)C(C)C
  GHS category: 5

## COc1ccccc1OCCNCC(O)COc1cccc2[nH]c3ccccc3c12 (configuration not stated)
  GHS category: 5

## NCC(O)CCl (configuration not stated)
  GHS category: 4

## Brc1c(Br)c(Br)c(OCCOc2c(Br)c(Br)c(Br)c(Br)c2Br)c(Br)c1Br
  GHS category: 5

## CC(=O)OC1CCC2C3CCC4CC(=O)CCC4(C)C3CCC12C (configuration not stated)
  GHS category: 5

## COC(=O)c1ccccc1S(=O)(=O)NC(=O)Nc1nc(C)nc(OC)n1
  GHS category: 5

## COC(=O)C(C)(C)c1ccc(Br)cc1
  GHS category: 5

## C=CC(=O)OCC[N+](C)(C)Cc1ccccc1
  GHS category: 5

## C=C[Si]1(C)O[Si](C)(C=C)O[Si](C)(C=C)O[Si](C)(C=C)O1 (configuration not stated)
  GHS category: 5

## C#CCOc1ccc(CCNC(=O)C(OCC#C)c2ccc(Cl)cc2)cc1OC (configuration not stated)
  GHS category: 5
